This is an account of results in US7135499B2, “Active substance combinations having insecticidal and acaricidal properties” (priority 2002, dated 2006).

The subject of assay [1] is cotton aphid (Aphis gossypii). Put plainly: Aphis gossypii test. Type of assay: in vivo. The conditions noted are these: after 6 d.
Assay [2] relates to green peach aphid (Myzus persicea). Put plainly: Myzus test. It is filed as in vivo.
The test system of assay [3] is caterpillars of the diamondback moth (Plutella xylostella, resistant strain). Put plainly: Plutella test, resistant strain. It is filed as in vivo.
In assay [4] the test system is caterpillars of the diamondback moth (Plutella xylostella, sensitive strain). Put plainly: Plutella test, sensitive strain. Type of assay: in vivo.
Assay [5] concerns Heliothis armigera caterpillars. Put plainly: Heliothis armigera test. Type of assay: in vivo. The conditions noted are these: for pest or weed control at 0.024 ppm: read-out: Kill rate in % found, 0.024 ppm; for pest or weed control at 0.12 ppm: read-out: Kill rate in % found, 0.12 ppm; for pest or weed control at 3 ppm: read-out: Kill rate in % found, 3 ppm.
The test system of assay [6] is caterpillars of the armyworm (Spodoptera frugiperda). Put plainly: Spodoptera frugiperda test. Type of assay: in vivo. The conditions noted are these: for pest or weed control at 0.16 ppm: read-out: Kill rate in % found, 0.16 ppm; for pest or weed control at 0.6 ppm: read-out: Kill rate in % found, 0.6 ppm.
The test system of assay [7] is caterpillars of the armyworm (Spodoptera exigua). Put plainly: Spodoptera exigua test. Type of assay: in vivo.
Assay [8] has as its system larvae of the mustard beetle (Phaedon cochleariae). Put plainly: Phaedon larvae test.
[9] abbreviates: Helicoverpa armigera, 72 h, after 3 d.
The mark [10] stands for this setting: Helicoverpa armigera, 144 h, after 6 d.
Where [11] appears, read: Spodoptera frugiperda, 72 h, after 3 d.
Where [12] appears, read: Spodoptera frugiperda, 144 h, after 6 d.

Several values for one entry are separate records, joined by “and”; a condition that tells them apart may be missing. Identical values can stand only once. Like-named read-outs stand apart in the source and are kept apart here.

In the case of `Cc1cc(C(F)(C(F)(F)F)C(F)(F)F)ccc1NC(=O)c1cccc(I)c1C(=O)NC(C)(C)CS(C)(=O)=O` [(I), N^2-[1,1-dimethyl-2-(methylsulphonyl)ethyl]-3-iodo-N^1-{2-methyl-4-[1,2,2,2-tetrafluoro-1-(trifluoromethyl)ethyl]phenyl}phthalamide], the “Kill rate in % found” value is 0% in assay [1] (500 ppm); 0% in assay [2] (100 ppm, after 1 d); 0% in assay [2] (500 ppm, after 6 d); 10% and 0% in assay [3] (0.0048 ppm, after 6 d); 30% in assay [3] (0.02 ppm, after 6 d); 70% in assay [3] (0.024 ppm, after 3 d). The “Kill rate in % found” value in assay [4] (0.0048 ppm, after 3 d) is reported as 0%; in assay [4] (0.0048 ppm, after 6 d) it was 25%; in assay [4] (0.0064 ppm, after 6 d), 60%; in assay [4] (0.024 ppm, after 3 d), 55%; in assay [4] (0.032 ppm, after 3 d) it was 65%; in assay [7] (0.024 ppm, after 6 d), 40%. Moreover, the “Kill rate in % found” value in assay [7] (0.032 ppm, after 4 d) was 10%; in assay [7] (0.12 ppm, after 6 d) it was 85%; in assay [8] (0.12 ppm, after 3 d) it was 0%; in assay [8] (0.12 ppm, after 6 d), 0%; in assay [8] (0.6 ppm, after 3 d), 0%; in assay [8] (3 ppm, after 3 d), 60%. In assay [8] (3 ppm, after 6 d), the “Kill rate in % found” value worked out at 70%. Also, the values for the pest or weed control at 0.024 ppm in assay [5] (setting [9]) and in assay [5] (setting [10]) were 80% and 70%, respectively. Further, the pest or weed control at 0.1 ppm in assay [5] (Helicoverpa armigera, 72 h, read-out: Kill rate in % found, 0.1 ppm, after 3 d) amounted to 80%. For the same molecule, the pest or weed control at 0.12 ppm in assay [5] (setting [9]) was determined as 80%. Also, the pest or weed control at 0.032 ppm in assay [5] (Helicoverpa armigera, 96 h, read-out: Kill rate in % found, 0.032 ppm, after 4 d) was 90%. In addition, the pest or weed control at 0.16 ppm in assay [6] (setting [11]) was determined as 70%; in assay [6] (Spodoptera frugiperda, 96 h, after 4 d) it was 70%; in assay [6] (setting [12]) it was 95%. In addition, the pest or weed control at 0.02 ppm in assay [6] (Spodoptera frugiperda, 144 h, read-out: Kill rate in % found, 0.02 ppm, after 6 d) was determined as 5%.

Turning to `CN/C(=N\[N+](=O)[O-])NCc1cnc(Cl)s1` [clothianidin], in assay [2] (0.6 ppm, after 6 d), the “Kill rate in % found” value came to 60%. The pest or weed control at 3 ppm in assay [5] (setting [9]) is 10%.

Take `CC1(C)[C@H](C(=O)O[C@H](C#N)c2cccc(Oc3ccccc3)c2)[C@@H]1C=C(Br)Br` [deltamethrin]: the “Kill rate in % found” value in assay [4] (0.00128 ppm, after 6 d) is recorded as 40%; in assay [7] (0.00128 ppm, after 4 d), 0%. In addition, the pest or weed control at 0.0064 ppm was determined as 10% in assay [5] (Helicoverpa armigera, 96 h, read-out: Kill rate in % found, 0.0064 ppm, after 4 d) and 0% in assay [6] (Spodoptera frugiperda, 96 h, read-out: Kill rate in % found, 0.0064 ppm, after 4 d).

Turning to `CN/C(=N\[N+](=O)[O-])NCC1CCOC1` (centres unmarked) [dinotefuran], in assay [2] (3 ppm, after 1 d), the “Kill rate in % found” value was 15%. In assay [6] (Spodoptera frugiperda, 72 h, read-out: Kill rate in % found, 3 ppm, after 3 d), the pest or weed control at 3 ppm was 40%.

For `CC[S+]([O-])c1c(C#N)nn(-c2c(Cl)cc(C(F)(F)F)cc2Cl)c1N` (centres unmarked) [ethiprole], the pest or weed control at 20 ppm in assay [6] (Spodoptera frugiperda, 144 h, read-out: Kill rate in % found, 20 ppm, after 6 d) is 10%.

For the molecule `N#Cc1nn(-c2c(Cl)cc(C(F)(F)F)cc2Cl)c(N)c1[S+]([O-])C(F)(F)F` (centres unmarked) [fipronil], the “Kill rate in % found” value in assay [4] (0.12 ppm, after 3 d) is given as 65%. Further, the pest or weed control at 0.12 ppm in assay [5] (setting [10]) stood at 10%. Further, the pest or weed control at 0.6 ppm in assay [6] (setting [11]) was found to be 20%.

Take `O=C(NC(=O)c1c(F)cccc1F)Nc1ccc(Oc2ccc(C(F)(F)F)cc2Cl)cc1F` [flufenoxuron]: the “Kill rate in % found” value in assay [3] (0.12 ppm, after 6 d) is reported as 40%; in assay [4] (0.12 ppm, after 3 d) it was 0%; in assay [7] (0.6 ppm, after 3 d), 0%; in assay [8] (3 ppm, after 3 d), 0%. The pest or weed control at 0.12 ppm in assay [5] (setting [10]) is 15%.

`COC(=O)N(C(=O)N1COC2(C(=O)OC)Cc3cc(Cl)ccc3C2=N1)c1ccc(OC(F)(F)F)cc1` (centres unmarked) [indoxacarb]: the “Kill rate in % found” value is 50% in assay [3] (0.12 ppm, after 6 d); 0% in assay [4] (0.024 ppm, after 3 d); 20% in assay [7] (0.6 ppm, after 3 d); 35% in assay [8] (0.6 ppm, after 3 d). Moreover, the pest or weed control at 0.024 ppm in assay [5] (setting [10]) turned out to be 0%. The pest or weed control at 0.6 ppm in assay [6] (setting [11]) turned out to be 60%.

As for `COc1cccc(C(=O)NN(C(=O)c2cc(C)cc(C)c2)C(C)(C)C)c1C` [methoxyfenozide], in assay [3] (0.6 ppm, after 6 d), the “Kill rate in % found” value came to 0%. Besides, in assay [5] (setting [9]), the pest or weed control at 3 ppm worked out at 50%. The pest or weed control at 0.6 ppm in assay [6] (setting [12]) turned out to be 5%.

On to `N#C/N=C1\SCCN1Cc1ccc(Cl)nc1` [thiacloprid], for which the “Kill rate in % found” value in assay [1] (3 ppm) was determined as 50%; in assay [2] (3 ppm, after 6 d) it was 60%; in assay [3] (3 ppm, after 3 d), 5%; in assay [8] (15 ppm, after 6 d) it was 85%.

`CN1COCN(Cc2cnc(Cl)s2)/C1=N/[N+](=O)[O-]` [thiamethoxam]: the “Kill rate in % found” value in assay [2] (0.6 ppm, after 1 d) is 85%; in assay [3] (3 ppm, after 6 d), 0%; in assay [8] (15 ppm, after 3 d), 85%.

As to `O=C(NC(=O)c1ccccc1Cl)Nc1ccc(OC(F)(F)F)cc1` [triflumuron], the “Kill rate in % found” value in assay [3] (3 ppm, after 6 d) was determined as 0%; in assay [4] (0.6 ppm, after 3 d) it was 0%; in assay [7] (15 ppm, after 3 d), 15%; in assay [8] (0.6 ppm, after 6 d) it was 0%. Besides, the pest or weed control at 15 ppm in assay [5] (Helicoverpa armigera, 72 h, read-out: Kill rate in % found, 15 ppm, after 3 d) stood at 0%. The pest or weed control at 0.12 ppm in assay [6] (Spodoptera frugiperda, 72 h, read-out: Kill rate in % found, 0.12 ppm, after 3 d) was 5%.

Consider abamectin, for which the “Kill rate in % found” value is reported as 35% in assay [4] (0.00096 ppm, after 3 d); 30% in assay [5] (0.0048 ppm, after 6 d); 25% in assay [6] (3 ppm, after 3 d); 70% in assay [7] (3 ppm, after 6 d); 25% in assay [8] (0.12 ppm, after 3 d).

Take emamectin-benzoate: the “Kill rate in % found” value in assay [3] (0.00024 ppm, after 6 d) is 15%; in assay [4] (0.00024 ppm, after 6 d) it was 10%; in assay [5] (0.00024 ppm, after 6 d) it was 0%; in assay [6] (0.006 ppm, after 3 d), 70%; in assay [7] (0.0012 ppm, after 6 d), 20%; in assay [8] (0.006 ppm, after 6 d), 10%.

In the case of spinosad, the “Kill rate in % found” value in assay [4] (0.0064 ppm, after 3 d) stood at 5%; in assay [6] (0.032 ppm, after 3 d), 35%.
